# Experimental data taken from patent publication US20180170903A1, “PYRIDIN-3-YL ACETIC ACID DERIVATIVES AS INHIBITORS OF HUMAN IMMUNODEFICIENCY VIRUS REPLICATION” (ViiV HEALTHCARE UK (NO.5) LIMITED, priority 2015, published 2018).
# Like-named read-outs stand apart in the source and are kept apart here.
# Tested on: NL-RLuc virus (recombinant HIV NL4-3 proviral clone with Renilla Luciferase) in MT-2 cells
# Experiment: Inhibition of HIV Replication (NL-RLuc luciferase reporter virus, MT-2 cells)
# Format: cell-based
# Settings: MT2, 120 h
# Source text: Inhibition of HIV Replication:
# A recombinant NL-RLuc proviral clone was constructed in which a section of the nef gene from NL4-3 was replaced with the Renilla Luciferase gene. This virus is fully infectious and can undergo multiple cycles of replication in cell culture. In addition, the luciferous reporter provides a simple and easy method for quantitating the extent of virus growth and consequently, the antiviral activity of test compounds. The plasmid pNLRLuc contains the proviral NL-Rluc DNA cloned into pUC 18 at the PvuII site. The NL-RLuc virus was prepared by transfection of 293T cells with the plasmid pNLRLuc. Transfections were performed using the LipofectAMINE PLUS kit from Invitrogen (Carlsbad, Calif.) according to the manufacturer and the virus generated was titered in MT-2 cells. For susceptibility analyses, the titrated virus was used to infect MT-2 cells in the presence of compound, and after 5 days of incubation, cells were processed and quantitated for virus growth by the amount of expressed luciferase. Assay media was RPMI 1640 supplemented with 10% heat inactivated fetal bovine serum (FBS), 100 units/ml penicillin G/100 units/ml streptomycin, 10 mM HEPES buffer pH 7.55 and 2 mM L-glutamine. The results from at least 2 experiments were used to calculate the EC50 values. Luciferase was quantitated using the Dual Luciferase kit from Promega (Madison, Wis.). Susceptibility of viruses to compounds was determined by incubation in the presence of serial dilutions of the compound. The 50% effective concentration (EC50) was calculated by using the exponential form of the median effect equation where (Fa)=1/[1+(ED50/drug conc.)^m](Johnson V A, Byington R T. Infectivity Assay. In Techniques in HIV Research. ed. Aldovini A, Walker B D. 71-76. New York: Stockton Press. 1990). Activity equal to A refers to a compound having an EC50≤100 nM, while B and C denote compounds having an EC50 between 100 nM and 1 uM (B) or >1 uM (C).
Structure (SMILES),EC50 (read-out: Activity) [µM],EC50 (read-out: EC50 μM) [µM]
"Cc1nc(C)c([C@H](OC(C)(C)C)C(=O)O)c(N2CCC(C)(C)CC2)c1-c1ccc(CN(Cc2ccc(F)cc2)C(=O)C(C)(C)C)cc1 [Example 25, (S)-2-(tert-butoxy)-2-(4-(4,4-dimethylpiperidin-1-yl)-5-(4-((N-(4-fluorobenzyl)pivalamido)methyl)phenyl)-2,6-dimethylpyridin-3-yl)acetic acid]",< 0.1,–
"Cc1nc(C)c([C@H](OC(C)(C)C)C(=O)O)c(N2CCC(C)(C)CC2)c1-c1ccc(CNCCC2CCCCC2)cc1 [Example 13, (S)-2-(tert-butoxy)-2-(5-(4-(((2-cyclohexylethyl)amino)methyl)phenyl)-4-(4,4-dimethylpiperidin-1-yl)-2,6-dimethylpyridin-3-yl)acetic acid]",0.1 to 1,–
"Cc1nc(C)c([C@H](OC(C)(C)C)C(=O)O)c(N2CCC(C)(C)CC2)c1-c1ccc(CN(Cc2ccc(F)cc2)C(=O)OCc2ccccc2)cc1 [Example 31, (S)-2-(5-(4-((((benzyloxy)carbonyl)(4-fluorobenzyl)amino)methyl)phenyl)-4-(4,4-dimethylpiperidin-1-yl)-2,6-dimethylpyridin-3-yl)-2-(tert-butoxy)acetic acid]",< 0.1,–
"Cc1nc(C)c([C@H](OC(C)(C)C)C(=O)O)c(N2CCC(C)(C)CC2)c1-c1ccc(CN(Cc2ccc(F)cc2)C(=O)C(C)C)cc1 [Example 23, (S)-2-(tert-butoxy)-2-(4-(4,4-dimethylpiperidin-1-yl)-5-(4-((N-(4-fluorobenzyl)isobutyramido)methyl)phenyl)-2,6-dimethylpyridin-3-yl)acetic acid]",< 0.1,–
"Cc1nc(C)c([C@H](OC(C)(C)C)C(=O)O)c(N2CCC(C)(C)CC2)c1-c1ccc(CNCc2ccc(Cl)cc2)cc1 [Example 15, (S)-2-(tert-butoxy)-2-(5-(4-(((4-chlorobenzyl)amino)methyl)phenyl)-4-(4,4-dimethylpiperidin-1-yl)-2,6-dimethylpyridin-3-yl)acetic acid]",< 0.1,–
"Cc1nc(C)c([C@H](OC(C)(C)C)C(=O)O)c(N2CCC(C)(C)CC2)c1-c1ccc(CNCc2ccccc2)cc1 [Example 14, (S)-2-(5-(4-((benzylamino)methyl)phenyl)-4-(4,4-dimethylpiperidin-1-yl)-2,6-dimethylpyridin-3-yl)-2-(tert-butoxy)acetic acid]",< 0.1,–
"Cc1nc(C)c([C@H](OC(C)(C)C)C(=O)O)c(N2CCC(C)(C)CC2)c1-c1ccc(CN(Cc2ccc(F)cc2)C(=O)COc2ccccc2)cc1 [Example 30, (S)-2-(tert-butoxy)-2-(4-(4,4-dimethylpiperidin-1-yl)-5-(4-((N-(4-fluorobenzyl)-2-phenoxyacetamido)methyl)phenyl)-2,6-dimethylpyridin-3-yl)acetic acid]",0.1 to 1,0.118
"Cc1nc(C)c([C@H](OC(C)(C)C)C(=O)O)c(N2CCC(C)(C)CC2)c1-c1ccc(CN(Cc2ccc(F)cc2)C(=O)C2CC2)cc1 [Example 40, (S)-2-(tert-butoxy)-2-(4-(4,4-dimethylpiperidin-1-yl)-5-(4-((N-(4-fluorobenzyl)cyclopropanecarboxamido)methyl)phenyl)-2,6-dimethylpyridin-3-yl)acetic acid]",< 0.1,–
